Measurements published in patent publication US4100299A, “Pharmaceutically active 2-omega-aminoalkoxydiphenylmethylmethanes” (Mitsubishi Chemical Industries Limited, priority 1977, dated 1978).
Counter-ions that a name gives are not always drawn.

Columns and labels:
tremorine induced tremor = assay: Antitremorine effect (central anticholinergic effect); type: in vivo; conditions: mice
Procedure: (§1) The compounds were administered intraperitoneally and the activities of the compounds were compared with those of Amitriptyline.

in vivo = conditions: mouse, ip
[1] = test system: spontaneous motor activity; assay: Spontaneous motor activity depression (ANIMEX apparatus; CNS depressant activity); type: in vivo; conditions: mice
Procedure: as §1

traction test = assay: Muscle relaxant action: traction test (CNS depressant activity, neurological deficit); type: in vivo; conditions: Mus musculus, ip, mice
Procedure: as §1

[2] = test system: electroshock induced tonic extensor; assay: Anticonvulsant activity: antagonism of electroshock induced tonic extensor; type: in vivo; conditions: Mus musculus, ip, mice, dose which prevents 50% of each response
Procedure: as §1

[3] = test system: reserpine induced hypothermia; assay: Antireserpine activity: antagonism of reserpine induced hypothermia (antidepressant activity); type: in vivo; conditions: for Antireserpine Activity in Mice, Relative Potency: relative to Amitriptyline = 1, i.p., reserpine 5 mg/kg i.p.
mice = conditions: i.p.

Row | SMILES | ED50 (tremorine induced tremor; Mus musculus, ip, tremorine induced tremor) | anticholinergic action (in words) (tremorine induced tremor; i.p.) | LD50 (in vivo) | ED50 ([1]; Mus musculus, ip, ANIMEX apparatus) | CNS depressant action (in words) ([1]; i.p., traction test and spontaneous motor activity) | ED50 (traction test) | ED50 [2] | antireserpine activity (in words) ([3]; mice, i.p., compared with Amitriptyline) | Antireserpine Activity in Mice, Relative Potency [3] | toxicity (in words) (mice)
1 | CNCCCCOc1ccccc1C(C)c1ccccc1 (centres unmarked) [2-(4-methylaminobutoxy)diphenylmethylmethane hydrochloride] | 20 mg/kg | weak CNS depressant and anticholinergic action | 140 mg/kg | 32 mg/kg | weak CNS depressant | > 60 mg/kg | 25 mg/kg | antireserpine activity comparable to that of Amitriptyline | 0.66 | low toxicity
2 | CC(c1ccccc1)c1ccccc1OCCCN(C)C (centres unmarked) [2-(3-dimethylaminopropoxy)diphenylmethylmethane] | – | – | 155 mg/kg | – | – | – | – | – | 0.34 | –
3 | CC(c1ccccc1)c1ccccc1OCCCCN(C)C (centres unmarked) [2-(4-dimethylaminobutoxy)diphenylmethylmethane hydrochloride] | – | – | 110 mg/kg | – | – | – | – | – | 0.36 | –
